Laboratory results: patent publication US9079876B2, “Imidazole derivatives and preparation method and use thereof” (Beijing Orbiepharm Co., Ltd., priority 2010, dated 2015)

How the values were obtained:
[1] = target: T1, cyclooxygenase-2 (COX-2 enzyme) (Homo sapiens, UniProt P35354); assay: Human whole blood in vitro activity assay, COX-2 (LPS-induced PGE2 by EIA); assay type: cell-based; conditions: for IC50: LPS, PGE2, read-out: IC50 (μg/mL) COX-2 (converted)
T1 construct: from tissue; host or cells: heparinised human whole blood from healthy volunteers, stimulated with LPS
T1 sequence (P35354 18-604): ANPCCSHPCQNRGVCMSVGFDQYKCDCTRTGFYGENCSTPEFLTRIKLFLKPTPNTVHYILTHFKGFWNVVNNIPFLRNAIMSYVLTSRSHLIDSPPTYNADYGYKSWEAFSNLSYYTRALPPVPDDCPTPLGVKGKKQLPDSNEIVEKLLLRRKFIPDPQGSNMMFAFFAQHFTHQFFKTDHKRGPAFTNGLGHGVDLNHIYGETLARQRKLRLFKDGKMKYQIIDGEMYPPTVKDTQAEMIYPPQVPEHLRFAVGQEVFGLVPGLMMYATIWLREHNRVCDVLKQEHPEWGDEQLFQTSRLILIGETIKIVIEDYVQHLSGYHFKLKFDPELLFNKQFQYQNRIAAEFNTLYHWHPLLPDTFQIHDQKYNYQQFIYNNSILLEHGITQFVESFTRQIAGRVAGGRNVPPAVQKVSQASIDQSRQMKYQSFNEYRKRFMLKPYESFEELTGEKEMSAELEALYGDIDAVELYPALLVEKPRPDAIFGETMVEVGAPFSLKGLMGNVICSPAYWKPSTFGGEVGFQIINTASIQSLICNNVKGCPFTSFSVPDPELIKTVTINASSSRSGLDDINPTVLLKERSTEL
Protocol: (§1) Human whole blood in vitro activity study: inhibition of activity of cyclooxygenase-1 (COX-1 enzyme) and cyclooxygenase-2 (COX-2 enzyme) in human blood. […] The blood samples were divided into two parts: one was used for detecting COX-1 enzyme activity, and the other was used for detecting COX-2 enzyme activity. The compounds were dissolved in DMSO, and were prepared in advance into 2 μL solutions in respective concentrations of 500, 50, 5, 0.5, 0.05, 0.005, 0.0005 μg/mL. 200 μL whole blood without heparin was added in the tubes containing the compounds, and then incubated at 37° C. for 1 hour. The activity of COX-1 enzyme was detected by determining the amount of thromboxane B2 (TXB2) synthesized by platelet using an EIA kit. Samples tested without the compounds were negative controls. For COX-2, 200 μL whole blood with heparin was added in the tubes containing the compounds and in the tubes containing 10 μg/mL LPS. LPS control and blank control with solvent only were used respectively for determining the maximum value and the background value of the PGE2 produced therefrom. The samples were incubated at 37° C. for 24 hours, and then centrifuged to collect serum/plasma, which was stored at −80° C. for detection by an EIA kit. The EIA kit of Cayman Company was used, the amounts of TXB2 and PGE2 were determined in accordance to the manufacturer's instructions, and the activities of COX-1 and COX-2 were tested respectively.

[2] = Pharmacokinetic study, intravenous, rats; assay type: in vivo; conditions: male SD rats, IV 2 mg/kg
Protocol: Cimicoxib (cimicoxib) was IV administrated to male SD rats in vivo [2 mg/kg, 2 mg/ml, menstruum: DMSO/PEG 400/30% HP-b-CD ([…])], T1/2 was 3.20 h. The half-life of compound 1 was longer than cimicoxib.

[3] = target: T2, COX-2 (Canis lupus familiaris, UniProt Q8SPQ9); assay: Dog whole blood in vitro activity assay, COX-2; assay type: cell-based, beagle dog; conditions: for IC50: read-out: IC50 (μg/mL) COX-2 (converted)
T2 construct: in vitro activity study using beagle dog whole blood was conducted; from tissue; host or cells: beagle dog whole blood, stimulated with LPS (by the same method as for human blood)
T2 sequence (Q8SPQ9 18-604): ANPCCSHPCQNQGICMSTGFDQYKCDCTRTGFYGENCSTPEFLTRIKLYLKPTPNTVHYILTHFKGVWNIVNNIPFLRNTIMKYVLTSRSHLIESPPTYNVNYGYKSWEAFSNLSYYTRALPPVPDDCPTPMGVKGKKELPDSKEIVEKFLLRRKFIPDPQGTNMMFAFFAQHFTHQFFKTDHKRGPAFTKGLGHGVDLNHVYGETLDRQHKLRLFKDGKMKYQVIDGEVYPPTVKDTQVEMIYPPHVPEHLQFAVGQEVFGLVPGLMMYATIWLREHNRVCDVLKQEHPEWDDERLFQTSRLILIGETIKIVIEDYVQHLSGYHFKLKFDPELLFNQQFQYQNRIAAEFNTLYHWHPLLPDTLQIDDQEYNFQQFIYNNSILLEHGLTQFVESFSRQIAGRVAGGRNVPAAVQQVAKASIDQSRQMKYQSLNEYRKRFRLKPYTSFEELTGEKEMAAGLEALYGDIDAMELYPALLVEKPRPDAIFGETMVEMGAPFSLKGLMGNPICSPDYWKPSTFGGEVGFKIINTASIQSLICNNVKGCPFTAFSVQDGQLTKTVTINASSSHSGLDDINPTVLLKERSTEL

[4] = target: T3, cyclooxygenase-1 (COX-1 enzyme) (Homo sapiens, UniProt P23219); assay: Human whole blood in vitro activity assay, COX-1 (TXB2 by EIA); assay type: cell-based; conditions: read-out: IC50 (μg/mL) COX-1 (converted)
T3 construct: from tissue; host or cells: human whole blood without heparin (platelets) from healthy volunteers
Protocol: as §1

[5] = target: T4, COX-1 (Canis lupus familiaris, UniProt Q8HZR1); assay: Dog whole blood in vitro activity assay, COX-1; assay type: cell-based, beagle dog; conditions: read-out: IC50 (μg/mL) COX-1 (converted)
T4 construct: in vitro activity study using beagle dog whole blood was conducted; from tissue; host or cells: beagle dog whole blood (platelets, by the same method as for human blood)
T4 sequence (Q8HZR1 28-603): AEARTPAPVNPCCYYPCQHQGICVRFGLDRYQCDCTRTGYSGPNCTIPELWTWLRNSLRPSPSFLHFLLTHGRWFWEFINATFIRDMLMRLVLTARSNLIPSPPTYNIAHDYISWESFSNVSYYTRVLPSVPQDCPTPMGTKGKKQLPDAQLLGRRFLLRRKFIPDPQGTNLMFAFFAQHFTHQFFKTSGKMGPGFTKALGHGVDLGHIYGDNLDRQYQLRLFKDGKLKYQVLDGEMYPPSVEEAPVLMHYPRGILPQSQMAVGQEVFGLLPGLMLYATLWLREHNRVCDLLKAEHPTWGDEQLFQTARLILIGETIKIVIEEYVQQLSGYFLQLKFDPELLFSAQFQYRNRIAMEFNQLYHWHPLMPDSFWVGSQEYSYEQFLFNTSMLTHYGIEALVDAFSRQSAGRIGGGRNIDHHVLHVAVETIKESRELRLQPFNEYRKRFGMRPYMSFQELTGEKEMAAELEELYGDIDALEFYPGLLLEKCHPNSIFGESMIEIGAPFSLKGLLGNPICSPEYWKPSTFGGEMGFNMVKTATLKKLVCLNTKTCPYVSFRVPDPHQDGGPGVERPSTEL

T3 sequence (P23219 24-599): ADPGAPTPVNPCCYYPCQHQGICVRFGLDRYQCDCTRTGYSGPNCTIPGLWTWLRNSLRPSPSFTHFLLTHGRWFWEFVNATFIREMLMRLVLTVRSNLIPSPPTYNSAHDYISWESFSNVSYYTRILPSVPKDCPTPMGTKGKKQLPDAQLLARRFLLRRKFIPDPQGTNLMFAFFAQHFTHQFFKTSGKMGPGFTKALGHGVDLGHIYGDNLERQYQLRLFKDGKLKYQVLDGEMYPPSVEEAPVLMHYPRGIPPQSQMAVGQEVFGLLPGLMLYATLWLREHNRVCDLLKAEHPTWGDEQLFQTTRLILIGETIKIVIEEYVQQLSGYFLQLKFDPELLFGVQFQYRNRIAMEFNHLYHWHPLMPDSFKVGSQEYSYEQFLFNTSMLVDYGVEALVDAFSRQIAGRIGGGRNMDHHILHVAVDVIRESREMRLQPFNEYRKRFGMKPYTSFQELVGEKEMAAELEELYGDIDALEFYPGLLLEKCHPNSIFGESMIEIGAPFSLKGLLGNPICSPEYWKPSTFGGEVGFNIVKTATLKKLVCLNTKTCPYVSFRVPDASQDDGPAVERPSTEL

| Compound | IC50COX-1/IC50COX-2 [1] | IC50 [1] [µM] | t1/2 [2] [h] | AUC(0-t) ([2]; rat, in vivo) [ng·h/mL] | C0 ([2]; rat, in vivo) [ng/mL] | clearance ([2]; rat, in vivo) [mL/min/kg] | half-life ([2]; rat, in vivo, 2 mg/ml, DMSO/PEG 400/30% HP-b-CD) [h] | Vd ([2]; rat, in vivo, read-out: Vss) [L/kg] | IC50COX-1/IC50COX-2 [3] | IC50 [3] [µM] | IC50 [4] [µM] | IC50 [5] [µM] |
| --- | --- | --- | --- | --- | --- | --- | --- | --- | --- | --- | --- | --- |
| COc1ccc(-c2c(Cl)ncn2-c2ccc(S(N)(=O)=O)cc2)cc1F [Cimicoxib, reference compound] | 8.8 | 0.471 | 3.20 ± 0.80 | 12000 ± 4400 | 1980 ± 140 | 2.99 ± 0.92 | 3.2 | 0.773 ± 0.145 | 9.5 | 1.65 | 4.16 | 15.6 |
| CS(=O)(=O)c1ccc(-n2cnc(Cl)c2-c2ccc(F)cc2)nc1 [Compound 2, 2-(4-chloro-5-(4-fluorophenyl)-1H-imidazol-1-yl)-5-(methylsulfonyl)pyridine] | 21.8 | 0.512 |  |  |  |  |  |  | 21.4 | 2.62 | 11.2 | 55.9 |
| Cc1ccc(-c2c(Cl)ncn2-c2ccc(S(C)(=O)=O)cn2)cc1 [Compound 3, 2-(4-chloro-5-p-tolyl-1H-imidazol-1-yl)-5-(methylsulfonyl)pyridine] | 76.2 | 0.259 |  |  |  |  |  |  | 18.8 | 1.61 | 19.7 | 30.2 |
| COc1ccc(-c2c(Cl)ncn2-c2ccc(S(C)(=O)=O)nc2)cc1 [Compound 9, 5-(4-chloro-5-(4-methoxyphenyl)-1H-imidazol-1-yl)-2-(methylsulfonyl)pyridine] | 247.2 | 0.253 |  |  |  |  |  |  | 239.6 | 2.31 | 62.5 | 553 |
| COc1ccc(-c2c(Cl)ncn2-c2ccc(S(C)(=O)=O)nc2)cc1F [Compound 10, 5-(4-chloro-5-(3-fluoro-4-methoxyphenyl)-1H-imidazol-1-yl)-2-(methylsulfonyl)pyridine] | 58.8 | 3.14 |  |  |  |  |  |  |  |  | 185 |  |
| CS(=O)(=O)c1ccc(-n2cnc(Cl)c2-c2cccnc2)cn1 [Compound 11, 5-(4-chloro-5-(pyridin-3-yl)-1H-imidazol-1-yl)-2-(methylsulfonyl)pyridine] | >12.6 | 118 |  |  |  |  |  |  |  |  | > 1490 |  |
| CS(=O)(=O)c1ccc(-n2cnc(Cl)c2-c2ccc(F)cc2)cn1 [Compound 12, 5-(4-chloro-5-(4-fluorophenyl)-1H-imidazol-1-yl)-2-(methylsulfonyl)pyridine] | 135.9 | 1.54 |  |  |  |  |  |  |  |  | 209 |  |
